Measured values published in the supplement of paper PMC10949913.

Columns and labels:
Experiment in all cases: area under concentration-response curve (viability) (AUC (a.u.)); higher = less active
Settings in all cases: 48 h
CU-ACC2 = system: CU-ACC2
Method in brief: (§1)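 In 1,536-well plates, 500–1,000 cells/well of three adrenocortical carcinoma cell lines in 5 µL medium received 23 nL of each library compound across 11 concentrations. At 48 h, CellTiter-Glo was incubated for 15 minutes at room temperature and luminescence measured. Per-plate normalisation used vehicle and empty-well controls, and only inhibitory or non-responding curve classes were kept when fitting concentration-response curves for AC50 and area under the curve.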

NCI-H295R = system: NCI-H295R
Method in brief: as §1

CU-ACC1 = system: CU-ACC1
Method in brief: as §1

SMILES | area under concentration-response curve (CU-ACC2) | area under concentration-response curve (NCI-H295R) | area under concentration-response curve (CU-ACC1)
O=C(O)[C@@H](c1ccc(OCc2ccc3ccccc3n2)cc1)C1CCCC1 | 561 | 493 | 454
Cc1c(F)cc(C(=O)NC2CC2)cc1-c1c(F)cn2c(C(C)(C)C)nnc2c1F | 507 | 469 | 482
CC(C)(C)C#Cc1cc(N(C(=O)[C@H]2CC[C@H](C)CC2)[C@H]2CC[C@@H](O)CC2)c(C(=O)O)s1 | 478 | 497 | 497
COc1cc(OC)c(C(=O)CCCN2CCCC2)c(OC)c1 | 500 | 465 | 440
CC(=O)O[C@@]12CO[C@@H]1C[C@H](O)[C@]3(C)[C@@H]2[C@H](OC(=O)C4=CC=CC=C4)[C@]5(O)C[C@H](O)/C(=C(/[C@@H](O)C3=O)C5(C)C)C | 539 | 491 | 507
CN1C(=O)C(=C\C2=C1N=C(NC3=CC=CC(=C3)C(O)=O)N=C2)/C4=C(Cl)C=CC=C4Cl | 528 | 483 | 515
CCOC(=O)c1c(/C(C#N)=C\N)c2ccc(Cl)c(Cl)c2n1C | 478 | 517 | 510
Cc1ccc([S+](=O)([O-])N[C@@H](Cc2ccccc2)C(=O)CCl)cc1 | 628 | 584 | 530
O=C(O)c1cc(O)c2c(c1)C(=O)c1cccc(O)c1C2=O | 622 | 582 | 529
N[C@@H](Cc1cc(I)c(Oc2cc(I)c(O)c(I)c2)c(I)c1)C(=O)O | 620 | 564 | 548
COc1ccc([C@@H]2CNC(=O)C2)cc1OC1CCCC1 | 457 | 516 | 432
CCOC(=O)[C@H]1O[C@@H]1C(=O)N[C@@H](CC(C)C)C(=O)NCCC(C)C | 589 | 527 | 566
C[C@]12CCC(=O)C(O)=C1CC[C@@H]1[C@@H]2CC[C@]2(C)C(=O)CC[C@@H]12 | 470 | 417 | 404
C[C@]\12CC[C@H](O)CC1=C/C[C@@H]3[C@@H]2CC[C@@]\4(C)[C@H]3C\C=C4C5=CN=CC=C5 | 588 | 509 | 522
CC1(C)CC[C@@]2(CC[C@]3(C)\C(=C/C[C@@H]4[C@@]5(C)C[C@@H](O)[C@H](O)C(C)(C)[C@@H]5CC[C@@]34C)[C@@H]2C1)C(O)=O | 574 | 531 | 478
CC/1=C/N([C@@H]2C[C@@H](O)[C@H](CO)O2)C(=O)NC1=O | 425 | 404 | 410
C#Cc1cccc(Nc2ncnc3cc(OCCOC)c(OCCO)cc23)c1 | 615 | 541 | 528
N#CCC1(n2cc(-c3ncnc4[nH]ccc34)cn2)CN(C2CCN(C(=O)c3ccnc(C(F)(F)F)c3F)CC2)C1 | 453 | 508 | 460
Nc1n[nH]c2nnc(-c3c(-c4ccccc4)nn4ccccc34)cc12 | 595 | 515 | 489

SMILES | area under concentration-response curve (CU-ACC2) | area under concentration-response curve (NCI-H295R) | area under concentration-response curve (CU-ACC1)
CCCNC(=O)c1cn2ncnc(Nc3cc(C(=O)NC4CC4)ccc3C)c2c1C | 654 | 583 | 539
Cc1cnc(NC(=O)C2=C(O)c3ccccc3S(=O)(=O)N2C)s1 | 409 | 396 | 393
O=C(NOCC(O)CO)c1ccc(F)c(F)c1Nc1ccc(I)cc1F (centres undefined) | 459 | 488 | 329
CN(C)[C@H]\1[C@@H]2[C@@H](O)[C@H]3\C(=C(O)/[C@]2(O)C(=O)\C(=C1O)C(N)=O)C(=O)C4=C(C=CC=C4O)[C@@]3(C)O | 625 | 530 | 593
S=P(N1CC1)(N1CC1)N1CC1 | 590 | 562 | 496
N#Cc1ccnc(N2C(=O)CC[C@H]2C(=O)N(c2cncc(F)c2)C(C(=O)NC2CC(F)(F)C2)c2ccccc2Cl)c1 (some centres undefined) | 602 | 578 | 500
CN(C)CCOC(c1ccccc1)c1ccccc1 | 565 | 527 | 478
CC(C)N(CCCNC(=O)Nc1ccc(C(C)(C)C)cc1)C[C@H]1O[C@@H](n2ccc3c(N)ncnc32)[C@H](O)[C@@H]1O | 656 | 578 | 537
CCCC[C@@H](C=O)NC(=O)[C@H](CC(C)C)NC(=O)OCc1ccccc1 | 552 | 517 | 463
Cc1c(F)cc(C(=O)NC2CC2)cc1-c1ccc(C(=O)NCC(C)(C)C)cn1 | 427 | 394 | 389
Nc1nc(N)c2nc(-c3cccc(O)c3)c(-c3cccc(O)c3)nc2n1 | 499 | 483 | 448
CC1CNc2c(cccc2[S+](=O)([O-])N[C@@H](CCCNC(=N)N)C(=O)N2CC[C@@H](C)C[C@@H]2C(=O)O)C1 (some centres undefined) | 547 | 507 | 502
Cn1c(=O)c2[nH]cnc2n(C)c1=O | 555 | 469 | 447
CCC(C)N1\N=C/N(C1=O)C2=CC=C(C=C2)N3CCN(CC3)C4=CC=C(OC[C@H]5CO[C@@](C[N]6C=NC=N6)(O5)C7=CC=C(Cl)C=C7Cl)C=C4 (some centres undefined) | 676 | 574 | 556
O=C(Oc1ccc([N+](=O)[O-])cc1)N1CCC(C(O)(c2ccc3c(c2)OCO3)c2ccc3c(c2)OCO3)CC1 | 575 | 535 | 495
CN1C(=O)[C@@H](NC(=O)[C@H](CCC(F)(F)F)[C@H](CCC(F)(F)F)C(N)=O)\N=C(C2=CC=CC=C2)/C3=CC=CC=C13 | 610 | 530 | 514
C[C@@H]1O[C@@H](O[C@@H]2\C=C/C=C\C=C/C=C\C[C@H](C)OC(=O)/C=C\[C@H]3O[C@@H]3C[C@H](O)C[C@]3(O)C[C@@H](O)[C@@H](C(=O)O)[C@H](C2)O3)[C@H](O)[C@H](N)[C@@H]1O | 572 | 573 | 395
Cc1ccc(C)c(OCCCC(C)(C)C(=O)O)c1 | 661 | 572 | 569
Cc1cc2c(cc1C1(c3ccc(C(=O)O)cn3)CC1)C(C)(C)CCC2(C)C | 598 | 514 | 504
